Activity calls are given as the source filed them. No cut-off for these calls is given here.
How the values were obtained:
BJ = assay: Cytotoxicity against human BJ cells assessed as cell viability at 0.3 to 3 uM incubated for 72 hrs by SF - cell counting reagent based colorimetric assay; assay type: toxicity; conditions: dose 0.3-3 µM
NCI-H2228-Luc [1] = assay: Anticancer activity against p53-mutated human NCI-H2228-Luc cells assessed as cell viability at 0.3 to 3 uM incubated for 72 hrs by SF - cell counting reagent based colorimetric assay; assay type: functional; conditions: dose 0.3-3 µM
NCI-H2228-Luc [2] = assay: In vivo antitumor activity against human NCI-H2228-Luc cells xenografted in CB17.Cg.Prkdc-scid Lystbg-j/CrlCrlj mouse assessed as prolonged reduction in tumor volume (cancer free) at 25 mg/kg, po administered every day (35 administration in total) measured after 15 days of last dose; assay type: functional, organism-based; conditions: time 50.0 day
NCI-H2228-Luc [3] = assay: In vivo antitumor activity against human NCI-H2228-Luc cells xenografted in CB17.Cg.Prkdc-scid Lystbg-j/CrlCrlj mouse assessed as reduction in tumor volume at 25 mg/kg, po administered every day (35 administration in total); assay type: functional, organism-based; conditions: time 35.0 day
NCI-H2228-Luc [4] = assay: In vivo antitumor activity against human NCI-H2228-Luc cells xenografted in CB17.Cg.Prkdc-scid Lystbg-j/CrlCrlj mouse assessed as prolonged reduction in tumor volume at 25 mg/kg, po administered every day (35 administration in total) measured after 70 days of last dose; assay type: functional, organism-based; conditions: time 70.0 day
[5] = Hematological toxicity in CB17.Cg.Prkdc-scid Lystbg-j/CrlCrlj mouse xenografted with human NCI-H2228-Luc cells assessed as change in peripheral blood cell count at 320 microg/kg, iv for 3 months; assay type: organism-based; conditions: in vivo, 0.32 mg/kg, 2190 h, dose 320 µg/kg
NCI-H2228-Luc [6] = assay: Induction of RUNX3 mRNA level in human NCI-H2228-Luc cells at 0.3 to 3 uM incubated for 24 hrs by RT-qPCR analysis; assay type: functional, cell-based; conditions: dose 0.3-3 µM
NCI-H2228-Luc [7] = assay: Induction of RUNX2 mRNA level in human NCI-H2228-Luc cells at 0.3 to 3 uM incubated for 24 hrs by RT-qPCR analysis; assay type: functional, cell-based; conditions: dose 0.3-3 µM
NCI-H2228-Luc [8] = assay: Induction of apoptosis in p53-mutated human NCI-H2228-Luc cells assessed as increase in TAp73 mRNA expression incubated for 24 hrs by RT-qPCR analysis; assay type: functional, cell-based
[9] = Hematological toxicity in CB17.Cg.Prkdc-scid Lystbg-j/CrlCrlj mouse xenografted with human NCI-H2228-Luc cells assessed as decrease in platelets at 10 mg/kg, iv (tail vein) administered twice a week (10 injections in total) measured after 3 days; assay type: organism-based; conditions: in vivo, 912 h, time 38 day
NCI-H2228-Luc [10] = assay: Induction of RUNX1 mRNA level in human NCI-H2228-Luc cells at 0.3 to 3 uM incubated for 24 hrs by RT-qPCR analysis; assay type: functional, cell-based; conditions: dose 0.3-3 µM
NCI-H2228-Luc [11] = assay: In vivo antitumor activity against human NCI-H2228-Luc cells xenografted in CB17.Cg.Prkdc-scid Lystbg-j/CrlCrlj mouse assessed as reduction in tumor volume at 5 mg/kg, iv (tail vein) administered twice a week (10 injections in total) measured after 3 days; assay type: functional, organism-based; conditions: time 38.0 day
[12] = Toxicity in CB17.Cg.Prkdc-scid Lystbg-j/CrlCrlj mouse xenografted with human NCI-H2228-Luc cells assessed as change in body weight at 5 mg/kg, iv (tail vein) administered twice a week (10 injections in total) measured after 3 days; assay type: organism-based; conditions: in vivo, 912 h, time 38 day
NCI-H2228-Luc [13] = assay: In vivo antitumor activity against human NCI-H2228-Luc cells xenografted in CB17.Cg.Prkdc-scid Lystbg-j/CrlCrlj mouse assessed as prolonged reduction in tumor volume at 5 mg/kg, iv (tail vein) administered twice a week (10 injections in total) measured after 35 days of last dose relative to alectinib and ceritinib; assay type: functional, organism-based; conditions: time 70.0 day
NCI-H2228-Luc [14] = assay: Induction of apoptosis in p53-mutated human NCI-H2228-Luc cells assessed as decrease in BCL11A mRNA expression at 0.3 to 1 uM incubated for 24 hrs by RT-qPCR analysis; assay type: functional, cell-based; conditions: dose 0.3-1 µM
NCI-H2228-Luc [15] = assay: Anticancer activity against p53-mutated human NCI-H2228-Luc cells assessed as cell viability incubated for 72 hrs by SF - cell counting reagent based colorimetric assay; assay type: functional; conditions: dose 0.3-3 µM
NCI-H2228-Luc [16] = assay: Induction of apoptosis in p53-mutated human NCI-H2228-Luc cells assessed as late apoptotic cells at 0.3 to 3 uM incubated for 72 hrs by Annexin V-FITC and propidium iodide (PI) staining based flow cytometric analysis; assay type: functional, cell-based; conditions: dose 0.3-3 µM
[17] = Hematological toxicity in wild type mouse C-kit positive fraction of bone marrow cells assessed as decrease in colony forming capacity at 10 uM; assay type: cell-based; conditions: bone marrow cell
NCI-H2228-Luc [18] = assay: Induction of apoptosis in p53-mutated human NCI-H2228-Luc cells assessed as early apoptotic cells at 0.3 to 3 uM incubated for 72 hrs by Annexin V-FITC and propidium iodide (PI) staining based flow cytometric analysis; assay type: functional, cell-based; conditions: dose 0.3-3 µM
NCI-H2228-Luc [19] = assay: In vivo antitumor activity against human NCI-H2228-Luc cells xenografted in CB17.Cg.Prkdc-scid Lystbg-j/CrlCrlj mouse assessed as prolonged reduction in tumor volume at 25 mg/kg, po administered every day (35 administration in total) measured after 77 days of last dose; assay type: functional, organism-based; conditions: time 77.0 day
NCI-H2228-Luc [20] = assay: In vivo antitumor activity against human NCI-H2228-Luc cells xenografted in CB17.Cg.Prkdc-scid Lystbg-j/CrlCrlj mouse assessed as prolonged reduction in tumor volume (cancer free) at 25 mg/kg, po administered every day (35 administration in total) measured after 8 days of last dose; assay type: functional, organism-based; conditions: time 43.0 day

CN(C)CCCNC(=O)c1cc(NC(=O)c2cc(NC(=O)c3cc(NC(=O)c4cc(NC(=O)CCCNC(=O)c5nc(NC(=O)c6nc(NC(=O)c7cc(NC(=O)c8nc(NC(=O)CCNC(=O)CCCc9ccc(N(CCO)CCO)cc9)cn8C)cn7C)cn6C)cn5C)cn4C)cn3C)cn2C)cn1C
Activity (BJ): Non-Toxic
Activity (NCI-H2228-Luc [1]): inactive

CN(C)CCCNC(=O)c1cc(NC(=O)c2cc(NC(=O)c3nc(NC(=O)c4nc(NC(=O)CCCNC(=O)c5cc(NC(=O)c6cc(NC(=O)c7nc(NC(=O)c8nc(NC(=O)CCNC(=O)CCCc9ccc(N(CCCl)CCCl)cc9)cn8C)cn7C)cn6C)cn5C)cn4C)cn3C)cn2C)cn1C
Activity (BJ): Non-Toxic
Activity (NCI-H2228-Luc [1]): inactive

Cc1cc(Nc2ncc(Cl)c(Nc3ccccc3S(=O)(=O)C(C)C)n2)c(OC(C)C)cc1C1CCNCC1
Activity (NCI-H2228-Luc [2]): Active
Activity (NCI-H2228-Luc [3]): Active
Activity (NCI-H2228-Luc [4]): inactive

CN(C)CCCNC(=O)c1cc(NC(=O)c2cc(NC(=O)c3cc(NC(=O)c4cc(NC(=O)CCCNC(=O)c5nc(NC(=O)c6nc(NC(=O)c7cc(NC(=O)c8nc(NC(=O)CCNC(=O)CCCc9ccc(N(CCCl)CCCl)cc9)cn8C)cn7C)cn6C)cn5C)cn4C)cn3C)cn2C)cn1C
Activity [5]: Non-Toxic
Activity (NCI-H2228-Luc [6]): Active
Activity (NCI-H2228-Luc [7]): Active
Activity (NCI-H2228-Luc [8]): Dose-Dependent Effect
Activity [9]: Non-Toxic
Activity (NCI-H2228-Luc [10]): Active
Activity (BJ): Non-Toxic
Activity (NCI-H2228-Luc [11]): Active
Activity [12]: Non-Toxic
Activity (NCI-H2228-Luc [13]): Active
Activity (NCI-H2228-Luc [14]): Active
Activity (NCI-H2228-Luc [15]): Dose-Dependent Effect
Activity (NCI-H2228-Luc [16]): Active
Activity [17]: Non-Toxic
Activity (NCI-H2228-Luc [18]): Active

CCc1cc2c(cc1N1CCC(N3CCOCC3)CC1)C(C)(C)c1[nH]c3cc(C#N)ccc3c1C2=O
Activity (NCI-H2228-Luc [19]): inactive
Activity (NCI-H2228-Luc [3]): Active
Activity (NCI-H2228-Luc [20]): Active

O=C(O)CCCc1ccc(N(CCCl)CCCl)cc1 [CHLORAMBUCIL]
Activity (BJ): Non-Toxic
Activity (NCI-H2228-Luc [1]): inactive
